Measurements taken from EP4755881A1 (Wuhan Createrna Science and Technology Co., Ltd., priority 2023, dated 2025).
Like-named read-outs stand apart in the source and are kept apart here.

How the values were obtained:
[1] = molecular target: hLPAR1 (human lysophosphatidic acid receptor 1, Accession No.: NM_001401.4) (Homo sapiens, UniProt Q92633); assay: cell-based; conditions: Table 1; FLIPR method, CHO-K1 cells overexpressing hLPAR1; read-out: LPAR1 inhibitory activity IC50
Experimental: The antagonist properties of the compounds in the present disclosure were determined using the FLIPR (Fluorometric Imaging Plate Reader) method in CHO-K1 cells (Chinese Hamster Ovary cells K1, ATCC) overexpressing hLPAR1 (human lysophosphatidic acid receptor 1, Accession No.: NM_001401.4).
CHO-K1 cells stably expressing hLPAR1 were placed in a cell culture incubator at 37°C with 5% CO2 and cultured in F-12 medium containing 10% FBS (fetal bovine serum, Gibco, 10099-141), 1% penicillin-streptomycin (Gibco, 15140-122), and 0.4 mg/mL Hygromycin B (Gibco, 10687010). 18-24 hours before the FLIPR experiment, the cells were seeded into a 96-well plate at a density of 250,000 cells/mL (25,000 cells/well) and incubated overnight in the cell culture incubator. On the day of the experiment, the medium was removed, and the cells were washed with FLIPR buffer (2.5 mM probenecid (Thermo, P36400), 1.3 mM CaCl2, 3.3 mM Na2CO3, 1 mM MgSO4, 20 mM HEPES (Invitrogen, 15630080), 1× HBSS (Invitrogen, 14065056), 0.1% BSA (BioSharp, 70080030)). 75 µL of […] Fluo-4 AM fluorescent dye (Thermo, F14202) was added to each well and incubated for 1.0 hour at 37°C for dye loading. The 96-well plate was then washed once with buffer, and 50 µL of buffer containing the test compound or vehicle was added to each well, followed by incubation at room temperature for 30 min. The cell plate was then placed into the FLIPR for baseline fluorescence measurement (excitation wavelength at 485 nm, emission wavelength at 525 to 535 nm). Subsequently, 50 µL/well of agonist (final concentration 1 µM oleoyl-L-α-lysophosphatidic acid sodium salt (Sigma, L7260)) or vehicle (ultrapure water) was added, and fluorescence values were measured at 1-second intervals for 2 min. Finally, the output fluorescence counts were analyzed using GraphPad Prism 9.0 software log(inhibitor) vs. response--Variable slope (four parameters) equation to calculate IC50 values.
Table 1: Inhibitory activity data of compounds against LPAR1

[2] = Pharmacokinetic study in rats (oral gavage and tail vein injection, plasma LC-MS/MS); format: in vivo; conditions: rat; for Cmax: read-out: Cmax
Experimental: Male SPF-grade SD rats (Beijing Vital River Laboratory Animal Technology Co., Ltd.) with a body weight range of 200 to 250 g were used. After acclimatization, the rats were administered a clear solution of the compound of the present disclosure via oral gavage (Po, fasted overnight before administration with free access to water, food returned 4 hours after administration) and tail vein injection (Iv, free access to food and water throughout the administration). Blood samples were collected from the orbital venous plexus/jugular vein of rats at specified time points after administration (blood collection time points for the PO group: 0.167, 0.5, 1, 2, 4, 6, 8, and 24 h; for the IV group: 0.033, 0.167, 1, 2, 4, 6, 8, and 24 h). The concentration of compounds in plasma was detected by LC-MS/MS (AB SCIEX Qtrap4500). Data were analyzed using WinNonlin (version 5.2.1 Pharsight, Mountain View, CA) with a non-compartmental model to obtain PK parameters (including Cmax, C0, Tmax, AUClast, AUCinf, T1/2, etc.).
Table 3: Results of in vivo pharmacokinetic studies of compounds of the present disclosure in rats
The vehicle for the Po group compound was 5% DMSO + 5% ethanol + 60% PEG400 + 30% normal saline; the vehicle for the Iv group compound was 10% ethanol + 20% pure water + 70% PEG400 solution.

hLPAR1 (human lysophosphatidic acid receptor 1, Accession No.: NM_001401.4), sequence (Q92633 whole entry): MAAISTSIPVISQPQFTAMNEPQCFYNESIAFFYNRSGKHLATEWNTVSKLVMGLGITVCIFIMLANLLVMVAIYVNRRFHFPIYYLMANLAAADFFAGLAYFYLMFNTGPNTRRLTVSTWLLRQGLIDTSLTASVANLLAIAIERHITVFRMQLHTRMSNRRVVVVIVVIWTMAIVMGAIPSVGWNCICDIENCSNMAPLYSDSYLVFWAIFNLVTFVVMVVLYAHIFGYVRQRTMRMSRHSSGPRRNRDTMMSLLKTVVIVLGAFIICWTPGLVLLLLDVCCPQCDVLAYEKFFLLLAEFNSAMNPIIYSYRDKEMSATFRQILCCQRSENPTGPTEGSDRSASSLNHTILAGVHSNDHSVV

Structure (SMILES)	IC50 [1]	half-life ([2]; male, SD, iv, 1 mg/kg)	half-life ([2]; male, SD, po, 1 mg/kg)	AUC(0-t) ([2]; male, SD rats, Iv, 1 mg/kg)	Cmax ([2]; male, SD rats, Iv, 1 mg/kg)	AUC(0-t) ([2]; male, SD rats, Po, 1 mg/kg)	Cmax ([2]; male, SD rats, Po, 1 mg/kg)	also measured
Cc1nc(-c2nnn(C)c2COC(=O)N(C)C(C)C2CCC2)ccc1C#CC1(CC(=O)O)CC1 (stereo not drawn) [compound 211, 2-(1-((6-(5-((((1-cyclobutylethyl)(methyl)carbamoyl)oxy)methyl)-1-methyl-1H-1,2,3-triazol-4-yl)-2-methylpyridin-3-yl)ethynyl)cyclopropyl)acetic acid]	13.8 nM	–	–	–	–	–	–	–
Cc1nc(-c2nnn(C)c2COC(=O)N(C)C2CCCC2)ccc1C#CC1(CC(=O)O)CC1 [compound 018, 2-(1-((6-(5-(((cyclopentyl(methyl)carbamoyl)oxy)methyl)-1-methyl-1H-1,2,3-triazol-4-yl)-2-methylpyridin-3-yl)ethynyl)cyclopropyl)acetic acid]	55.2 nM	–	–	–	–	–	–	–
Cc1nc(-c2nnn(C)c2NC(=O)OC(C)CCC(F)F)ccc1C#CC1(CC(=O)O)CC1 (stereo not drawn) [compound 283, 2-(1-((6-(5-((((5,5-difluoropentan-2-yl)oxy)carbonyl)amino)-1-methyl-1H-1,2,3-triazol-4-yl)-2-methylpyridin-3-yl)ethynyl)cyclopropyl)acetic acid]	–	7.36 h	6.9 h	5000 to 10000 ng·h/mL	800 to 5000 ng/mL	5000 to 10000 ng·h/mL	200 to 800 ng/mL	–
Cc1nc(-c2nnn(C)c2COC(=O)N(C)CCC(C)F)ccc1C#CC1(CC(=O)O)CC1 (stereo not drawn) [compound 037, 2-(1-((6-(5-((((3-fluorobutyl)(methyl)carbamoyl)oxy)methyl)-1-methyl-1H-1,2,3-triazol-4-yl)-2-methylpyridin-3-yl)ethynyl)cyclopropyl)acetic acid]	105 nM	–	–	–	–	–	–	–
Cc1nc(-c2nnn(C)c2NC(=O)OC(C)CCCF)ccc1C#CC1(CC(=O)O)CC1 (single isomer, unassigned) [280-B]	–	–	–	–	–	–	–	AUC(0-t) ([2]; in vivo, SD rats, Iv, 1 mg/kg): 5000 to 10000 ng·h/mL; Cmax ([2]; in vivo, SD rats, Iv, 1 mg/kg): 800 to 5000 ng/mL; AUC(0-t) ([2]; in vivo, SD rats, Po, 3 mg/kg): 10000 to 20000 ng·h/mL; Cmax ([2]; in vivo, SD rats, Po, 3 mg/kg): 800 to 5000 ng/mL; half-life ([2]; in vivo, iv, 1 mg/kg, SD rats): 6.47 h; half-life ([2]; in vivo, po, 3 mg/kg, SD rats): 6.57 h
Cc1nc(-c2nnn(C)c2COC(=O)N(C)CCC(C)(F)F)ccc1C#CC1CCC1C(=O)O (racemic) [compound 359]	–	–	–	–	–	–	–	AUC(0-t) ([2]; in vivo, SD rats, Iv, 1 mg/kg): 1200 to 3000 ng·h/mL; Cmax ([2]; in vivo, SD rats, Iv, 1 mg/kg): 800 to 5000 ng/mL; AUC(0-t) ([2]; in vivo, SD rats, Po, 1 mg/kg): 1200 to 3000 ng·h/mL; Cmax ([2]; in vivo, SD rats, Po, 1 mg/kg): 200 to 800 ng/mL; half-life ([2]; in vivo, iv, 1 mg/kg, SD rats): 7.63 h; half-life ([2]; in vivo, po, 1 mg/kg, SD rats): 6.24 h
Cc1nc(-c2nnn(C)c2NC(=O)OC(C)C23CC(C2)C3)ccc1C#CC1(CC(=O)O)CC1 (racemic) [compound 260]	–	–	–	–	–	–	–	AUC(0-t) ([2]; SD rats, Iv, 1 mg/kg): 5000 to 10000 ng·h/mL; half-life ([2]; SD rats, Iv, 1 mg/kg): 8.44 h; Cmax ([2]; SD rats, Iv, 1 mg/kg): 800 to 5000 ng/mL; AUC(0-t) ([2]; SD rats, Po, 1 mg/kg): 5000 to 10000 ng·h/mL; half-life ([2]; SD rats, Po, 1 mg/kg): 9.12 h; Cmax ([2]; SD rats, Po, 1 mg/kg): 200 to 800 ng/mL
Cc1nc(-c2nnn(C)c2NC(=O)O[C@H](C)CC(C)(F)F)ccc1C#C[C@@H]1CC[C@H]1C(=O)O (mixture of isomers) [compound 213, trans-2-((6-(5-(((((R)-4,4-difluoropentan-2-yl)oxy)carbonyl)amino)-1-methyl-1H-1,2,3-triazol-4-yl)-2-methylpyridin-3-yl)ethynyl)cyclobutane-1-carboxylic acid]	–	10.4 h	9.97 h	5000 to 10000 ng·h/mL	800 to 5000 ng/mL	5000 to 10000 ng·h/mL	200 to 800 ng/mL	–
Cc1nc(-c2nnn(C)c2NC(=O)O[C@H](C)c2ccccc2)ccc1C#C[C@@H]1C[C@H]1C(=O)O [compound 295]	–	3.46 h	3.49 h	5000 to 10000 ng·h/mL	800 to 5000 ng/mL	10000 to 20000 ng·h/mL	800 to 5000 ng/mL	–
CCC[C@@H](C)OC(=O)Nc1c(-c2ccc(C#C[C@@H]3C[C@H]3C(=O)O)c(C)n2)nnn1C (mixture of isomers) [compound 224, trans-2-((2-methyl-6-(1-methyl-5-(((((R)-pentan-2-yl)oxy)carbonyl)amino)-1H-1,2,3-triazol-4-yl)pyridin-3-yl)ethynyl)cyclopropane-1-carboxylic acid]	–	4.78 h	3.76 h	5000 to 10000 ng·h/mL	800 to 5000 ng/mL	5000 to 10000 ng·h/mL	800 to 5000 ng/mL	–
